# According to patent US10292992B2, “Selective high-affinity polydentate ligands and methods of making such” (LAWRENCE LIVERMORE NATIONAL SECURITY, LLC, priority 2008, dated 2019):
# Entries after “also recorded” stand apart in the source; their conditions may differ.
# Columns and labels:
# Raji cells = test: 3-D confocal microscopy, Raji cells; format: cell-based, human; conditions: biotinylated reagent, 1 hr, 10 μM SHAL or 10 nM chLym-1
# Method: (§1) SHAL binding and internalization by Raji and Jurkat's cells was assessed using the method described previously by O'Donnell et al. (O'Donnell et al. (1998) Prostate 37:91-97). Experiments were conducted comparing the binding of (DvLPBaPPP)2LLDo (the parent SHAL), its hexa-arginine analog (DvLPBaPPP)2LArg6AcLLDo, and chimeric Lym-1 (chLym-1) to Raji cells. All steps were performed at 20° C., unless indicated.
# (§2) Four million Raji cells (>92% viability) in log phase growth were pelleted at 300×g, washed, and blocked for 30 min in 1 ml of 1% fraction V BSA in PBS, with constant rotation. Cells were then incubated 1 hr, at 1 million per 250 μl, with either 1% BSA in PBS or a biotinylated primary reagent: 10 nM chLym-1, 10 μM parent SHAL, or 10 μM hexa-arginine SHAL. After four washes (two in 1% BSA in PBS, two in PBS), 50 μl of the cell suspensions was applied to freshly poly-L-Lysine coated slides, and cells were allowed to adhere for 10 min in a humid chamber. Fixation and permeabilization were performed at −20° C. by using a 4 min exposure to methanol. Jurkat's cells were treated in the same manner as a control.
# Slides were then washed twice in PBS and blocked in 10% fetaplex serum (Gemini Bioproducts, West Sacramento, Calif.) in PBS for 15 min and washed once in PBS. The detection reagent, Streptavidin AlexaFluor 610 (Invitrogen, Carlsbad, Calif.) was diluted 1/500 in diluent, 100 μl was applied; a parafilm cover slip was layered over the solution to prevent evaporation. The slides were incubated in a humid chamber for 30 min., washed 5 times for 5 min each in PBS, and rinsed briefly in double distilled H2O. After the slides dried, cover slips were mounted with ProlongGold with 4′,6-diamidino-2-phenylindole (DAPI, Invitrogen, Carlsbad, Calif.). The slides were viewed with an Olympus FV1000 laser scanning confocal microscope and data were collected as Z-scans at 160×, with focal sections being taken 1 μm apart through the cell.
# [1] = system: Jurkat's cells (cells lacking HLA-DR10); test: 3-D confocal microscopy, Jurkat's cells; format: cell-based, human; conditions: biotinylated reagent, 1 hr
# Method: as §1, §2
# Slides were then washed twice in PBS and blocked in 10% fetaplex serum (Gemini Bioproducts, West Sacramento, Calif.) in PBS for 15 min and washed once in PBS. […]
# [2] = system: Raji cells expressing HLA-DR10; test: Whole cell binding assay with 111In-labeled SHAL; format: cell-based, human; conditions: for SHAL bound by Raji cells relative to parent SHAL: unwashed
# Method: Raji human Burkitt's lymphoma B-cells (American Type Culture Collection, Manassas, Va.) were maintained in RPMI-1640 media supplemented with 10% fetal bovine serum, 2mM L-glutamine, 1 mM sodium pyruvate, 1% of a solution of nonessential amino acids (GIBCO #11140-050), and 100 units/ml of Penicillin G, 100 μg/ml Streptomycin, and 0.25 μg/ml of Amphotericin B at 37° C. in a humidified 5% CO2 atmosphere. Jurkat's cells (American Type Culture Collection, Manassas, Va.), an acute leukemia T-cell line, were maintained in the same medium with the addition of 10 mM 4-(2-hydroxyethyl)-1-piperazineethanesulfonic acid (HEPES).
# A series of experiments were conducted to quantify the uptake of the ^111In-labeled parent SHAL (DvLPBaPPP)2LLDo and its hexa-arginine analog (DvLPBaPPP)2LArg6AcLLDo by Raji cells, a cell line that has been previously shown to express the HLA-DR10 variant. The assays were conducted using aliquots containing 10^6 cells suspended in 150 μl of PBS with 5% bovine serum albumin (BSA). Aliquots of cells were treated with 0.1, 1, 5, 10 or 25 ng of ^111In-labeled (DvLPBaPPP)2LLDo or (DvLPBaPPP)2LArg6AcLLDo for one hour at both 4° C. and 22° C. The tubes containing the treated cells were centrifuged to separate the cell pellet from the supernatant and the two fractions were counted in a calibrated gamma well counter to determine the amount of bound and free SHAL. Half of the cell pellets were washed twice with PBS and incubated at 22° C. for 15 min before centrifuging them again. The pooled washes and washed cell pellets were subsequently counted in the gamma well counter to assess how much of the bound SHAL could be removed by washing.
# In vitro cell binding experiments were conducted using ^111In-labeled parent SHAL and the hexa-arginine SHAL analog to quantify SHAL uptake and to evaluate the effect of adding the hexa-arginine tag. Uptake was assessed using Raji cells, a lymphoma cell line expressing HLA-DR10. Aliquots containing 10^6 cells were incubated with increasing amounts of SHAL containing ^111In labeled SHAL as a tracer, and cell-associated ^111In was measured before and after washing the cell pellets.
# [3] = General safety study in healthy mice; format: in vivo; conditions: 4 weeks; for adverse effects / toxicity: up to 2000 times the efficacy dose i.p.
# Method: Each of 3 groups of 7 healthy Balb/c mice were given PBS, 20 or 200 μg of DOTA-chelated SHAL i.p., that is, 200 or 2,000 times the SHAL efficacy dose. Immediately prior to intervention, the mice were observed, weighed and blood counts (red, white and platelets) obtained, then the mice were observed daily, weighed 3 times each week and blood counts measured weekly for 4 weeks after intervention.
Compound,"SHAL binding, uptake and localization in Raji cells (Raji cells)","SHAL binding, uptake and localization in Raji cells (Raji cells; listed as hexa-arginine SHAL)","SHAL binding, uptake and localization in Raji cells (Raji cells; listed as hexa-arginine SHAL analog)","SHAL binding, uptake and localization in Raji cells (Raji cells; listed as hexa-arginine analog)",SHAL uptake in Jurkat's cells [1],"pmoles SHAL Bound/10^6 cells unwashed ([2]; 5.3 pmoles of 111In-labeled SHAL, unwashed cell pellets)","pmoles SHAL Bound/10^6 cells Washed ([2]; 5.3 pmoles of 111In-labeled SHAL, washed two times with BSA/buffer)","SHAL remaining associated with Raji cells after washing relative to parent SHAL ([2]; 111In-labeled, after washing, listed as hexa-arginine SHAL)","SHAL bound by Raji cells relative to parent SHAL ([2]; 111In-labeled, listed as hexa-arginine SHAL)","SHAL bound by Raji cells relative to parent SHAL ([2]; 111In-labeled, listed as hexa-arginine SHAL analog)","proportion of SHAL retained by the cells after washing ([2]; Raji cells, after washing) [%]",Percent SHAL Retained ([2]; after washing two times) [%],amount of residualized SHAL ([2]; highest concentration tested),"body weight ([3]; 20 or 200 μg DOTA-chelated SHAL i.p. (200 or 2,000 times efficacy dose))",blood counts ([3]; 20 or 200 μg DOTA-chelated SHAL i.p.),adverse effects / toxicity [3],adverse effects / toxicity ([3]; listed as SHAL)
CC(=O)NC(CCCNC(=N)N)C(=O)NC(CCCNC(=N)N)C(=O)NC(CCCNC(=N)N)C(=O)NC(CCCNC(=N)N)C(=O)NC(CCCNC(=N)N)C(=O)NC(CCCNC(=N)N)C(=O)NCCCCC(NC(=O)C(CCCCNC(=O)COCCOCCNC(=O)COCCOCCNC(=O)COCCOCCNC(=O)C(CCCCNC(=O)COCCOCCNC(=O)c1ccc(NC(=O)C(CCCNC(=N)N)NC(=O)c2ccccc2)cc1)NC(=O)C(NS(=O)(=O)c1ccc(N=Nc2ccc(N(C)C)cc2)cc1)C(C)C)NC(=O)COCCOCCNC(=O)COCCOCCNC(=O)COCCOCCNC(=O)C(CCCCNC(=O)COCCOCCNC(=O)c1ccc(NC(=O)C(CCCNC(=N)N)NC(=O)c2ccccc2)cc1)NC(=O)C(NS(=O)(=O)c1ccc(N=Nc2ccc(N(C)C)cc2)cc1)C(C)C)C(=O)NC(CCCCNC(=O)CN1CCN(CC(=O)O)CCN(CC(=O)O)CCN(CC(=O)O)CC1)C(=O)O (centres unmarked) [(DvLPBaPPP)2LArg6AcLLDo],internalized,localized in the nucleus; also recorded: significantly more; also recorded: associated with the nucleus,associated with the nucleus,marked cytoplasmic binding but also intranuclear targeting; also recorded: taken up and internalized,minimal SHAL uptake,1.300 ± 0.038 pmoles SHAL Bound/10^6 cells,0.876 ± 0.017 pmoles SHAL Bound/10^6 cells,Three fold more; also recorded: three times,twice as much,two fold more,67,67,~1.1×10^6 SHAL molecules per cell,,,,
CC(C)C(NS(=O)(=O)c1ccc(N=Nc2ccc(N(C)C)cc2)cc1)C(=O)NCCOCCOCC(=O)NC(CCCCNC(=O)C(CCCCNC(=O)CC(=O)Nc1ccccc1Oc1ncc(C(F)(F)F)cc1Cl)NC(=O)COCCOCCNC(=O)c1ccc(N2CCN(Cc3ccc(Cl)cc3)CC2)c([N+](=O)[O-])c1)C(=O)NCCOCCOCC(=O)NC(CCCCNC(=O)CN1CCN(CC(=O)O)CCN(CC(=O)O)CCN(CC(=O)O)CC1)C(=O)O (centres unmarked) [tridentate SHAL],,,,,,,,,,,,,,gained weight,stable blood counts,no evidence for toxicity; also recorded: did not exhibit signs of adverse events,no adverse effects
